The numbers were not newly measured in patent US20070032536A1, “Compounds, compositions and methods” (priority 2003, published 2007), which cites them from elsewhere.

The series deals with A549 cells. The note with it: data provided by National Cancer Institute, Developmental Therapeutic Program.

Take `O=c1[nH]cc(F)c(=O)[nH]1` [5-fluorouracil]: the GI50 – broadly, the concentration that inhibits growth by half – is 1000 nM.
As for `COc1cccc2c1C(=O)c1c(O)c3c(c(O)c1C2=O)C[C@@](O)(C(=O)CO)C[C@@H]3O[C@H]1C[C@H](N)[C@H](O)[C@H](C)O1` [doxorubicin], the GI50 is 63 nM.
In the case of `NC(=O)NO` [hydroxyurea], the concentration for 50% growth inhibition (GI50) was 500000 nM.
As for `CC(=O)O[C@H]1C(=O)[C@@]2(C)[C@H]([C@H](OC(=O)c3ccccc3)[C@]3(O)C[C@H](OC(=O)[C@H](O)[C@@H](NC(=O)c4ccccc4)c4ccccc4)C(C)=C1C3(C)C)[C@]1(OC(C)=O)CO[C@@H]1C[C@@H]2O` [paclitaxel], the GI50 was 4 nM.
